“Also recorded” adds a separate entry of the source.
Legend:
[1] = system: UUO kidney; experiment: Dynamic MRI measurement of the enhancement in the kidney, UUO mice (Example 3); type: in vivo; details: DOTAREM 10 mM, Example 1 nanoparticles 5 mM
Method: The images were acquired with a 7T 300 MHz spectrometer imager, equipped with a linear 1H radiofrequency coil dedicated to mice (Bruker, Karlsruhe, Germany).
The dynamic MRI studies of capture and release of the nanoparticles in the tissues were carried out in vivo and made it possible to determine the change in enhancement in the kidney.
All the manipulations of the animals were carried out in compliance with the institutional animal protocol guidelines in place at Paris Descartes University, submission CEEA34.JS.142.1 and approved by the Institute's animal research committee, and also the ethics protocols of the company regarding mouse inductions. […]
8-week-old female mice of BalbC/JRJ type (n=6) were UUO-treated at just one kidney, i.e. each mouse comprises one lesioned kidney (UUO kidney) and one healthy kidney (reference kidney). […] The physiological respiratory parameters were measured throughout the MRI studies using a nonmagnetic respiratory sensor system (the company SAM, US) and the body temperature was maintained by heating the cradle to the core. […]
A dynamic contrast enhanced DCE sequence was recorded using a specific sequence eliminating the free artefacts of movement in post treatment with a TR of 100 ms and a TE of 4 ms and a tilt angle of 80° in order to ensure T1 MRI weighting; a field of view (FOV) of 3 cm×3 cm and a final matrix of 256 by 256 points. […]

[2] = system: UUO kidney; experiment: High temporal resolution DCE perfusion MRI, UUO model (Example 4); type: in vivo, female BalbC/JRJ mice; details: DOTAREM 10 mM
Method: It provides kinetic profiles of signal enhancement corresponding to the immediate arrival of the imaging agent in the tissue, in particular for probing the first glomerular pass.
The UUO model is induced by clamping the right ureter of female BalbC/JRJ mice according to a biochemically characterized protocol from the literature. All the manipulations of the animals were carried out in compliance with the institutional animal protocol guidelines described in Example 3.
8-week-old female mice of BalbC/JRJ type (n=6) were UUO-treated at the level of just one kidney, i.e. each mouse comprises one lesioned kidney (UUO kidney) and one healthy kidney (reference kidney). A batch of sham mice makes it possible to verify the validity of the contralateral reference with the MRI method developed. 2 batches of n=6 mice and n=6 shams were studied by dynamic MRI 3 days after induction.
The DCE MRI acquisition protocol consists in injecting the two types of imaging agents: reference DOTAREM and AGuIX, namely:
Solution according to the invention: 100 μl of imaging agent dissolved in a 0.9% saline solution, with a 5 mM concentration of AGuIX imaging agent.
Prior art solution: 100 μl of imaging agent dissolved in a 0.9% saline solution with 10 mM concentration of DOTAREM imaging agent. • i) The administration protocol is that of Example 3. • ii) The MRI acquisition protocol itself consists in recording sequential images by means of the T1-weighted FLASH MRI sequence (TR=TE=2.2 ms, spatial resolution 117×310 μm^2), temporal resolution 2.5 s for 10 min with 20 s of precontrast. […] T1 mapping in order to verify the concentration of Gd MRI agent is recorded. • iii) The digital processing method derived from method termed 3TP, three time Points, consists in defining 3 main points: basic reference intensity, point of maximum intensity of enhancement, final clearance time, and calculating the slopes of capture and of release of the agent. Next, a Mann-Whitney biostatistical study is applied to the slope parameters calculated for each of the 6 mice, and for each imaging agent.
Averaged collective method resulting in the value of T1max: • a) Searching for the time T corresponding to the maximum in the overall mean of the DCE MRI intensities. • b) Applying this max to each enhancement profile as Tmax. • c) Taking the mean of 6 enhancement values around the indexed value.

[3] = system: glomerular and tubular renal disorder model induced by injection of anti-gbm antibodies; experiment: Arterial input function (AIF) by DCE MRI in anti-gbm glomerular and tubular renal disorder model with therapy (Example 6); type: in vivo, male CBA mice; details: d7 and d14 post-induction, AGuIX 5 mM, DOTAREM 10 mM, 100 μl bolus
Method: The high temporal resolution DCE perfusion method with a period 2.5 s for 10 min, with injection of the imaging agent as a 100 μl bolus at […] (method described in Example 4) was applied on another model of glomerular and tubular renal disorder, i.e. model induced by injection of anti-gbm antibodies in the literature.
The DCE MRI acquisition protocol consists in injecting the two types of agents: reference DOTAREM or AGuIX, namely:
solution according to the invention: 100 μl of imaging agent dissolved in a 0.9% saline solution, with a 5 mM concentration of AguIX imaging agent, and
solution according to the prior art: 100 μl of imaging agent dissolved in a 0.9% saline solution, with a 10 mM concentration of DOTAREM imaging agent. […]
An additional parameter corresponding to the arrival of the imaging tracer in the organ, i.e. arterial input function AIF, was also recorded. Measured at the input of the organ studied, the AIF itself at the input of the kidney is an indicator of the functionality. The profile is recorded on the anatomical MRI image at the level of the renal arterial point on the dynamic images acquired at DCE high temporal resolution proposed. […]

## CNC[C@H](O)[C@@H](O)[C@H](O)[C@H](O)CO.O=C([O-])CN1CCN(CC(=O)[O-])CCN(CC(=O)O)CCN(CC(=O)[O-])CC1.[Gd+3] [DOTAREM]
[1]; intravenous, 100 μl, UUO mice
  discrimination between healthy kidney and lesioned (UUO) kidney by MRI enhancement: cannot discriminate between a healthy kidney and a lesioned kidney; also recorded: does not make it possible to significantly differentiate renal functionality of a healthy kidney and of an obstructed kidney; also recorded: does not make it possible to distinguish a healthy kidney from a kidney suffering from a renal disorder
[1]; time course by MRI after intravenous administration
  enhancement profile in the renal cortex, UUO kidney vs reference kidney: enhancement profile is similar between UUO kidney (lesioned kidney) and reference kidney (healthy kidney)
[2]; UUO model, AGuIX 5 mM
  decrease of DCE MRI signal between healthy and pathological kidney condition: 100%
  decrease of DCE MRI signal between healthy and pathological kidney condition, as factor: 2
[2]; intravenous, Example 1 nanoparticles 5 mM
  discrimination between healthy kidney and lesioned kidney (high time resolution DCE MRI): cannot discriminate between a healthy kidney and a lesioned kidney
[2]; intravenous, Example 1 nanoparticles 5 mM, 3 days after induction
  enhancement profile in the renal cortex, UUO kidney vs reference kidney (high time resolution DCE MRI, Mann-Whitney improved 3TP): enhancement profile is similar between UUO kidney (lesioned kidney) and reference kidney (healthy kidney)
[3]
  AIF at the kidney input, control (carrier) mice vs MP mice: identical

From patent US20190022257A1, “ULTRAFINE NANOPARTICLES AS AN IMAGING AGENT FOR DIAGNOSING A RENAL DISORDER” (priority 2016, published 2019)
